Measurements published in ChEMBL document CHEMBL1157539, “Thousands of chemical starting points for antimalarial lead identification” (Nature, 2010).

Tested on: Plasmodium falciparum
Experiment: GSK_TCMDC: Inhibition of Plasmodium falciparum 3D7 in whole erythrocytes, using parasite LDH activity as an index of growth.
Format: functional, organism-based

SMILES | XC50 (Plasmodium falciparum, 3D7) [nM] | XC50 [nM]
CN1CCC(c2ccc(NC(=O)c3ccc(-c4cccc(C(F)(F)F)c4)o3)cc2)CC1 | 1130 | 
CC(C)N1CCC(NCc2ccc(-c3ccc(Cl)cc3)cc2)CC1 | 646 | 
CC(C)Oc1cc2c(cc1NS(=O)(=O)c1ccc(-c3cccs3)cc1)CCN(C)CC2 | 961 | 
COc1ccc(Oc2ccc(-c3c(C)[nH]c(C)c(Cl)c3=O)cc2)cc1 | 135 | 
CC(C)[C@H](NC(=O)c1c(CN2CCC(N3CCCCC3)CC2)c(-c2ccccc2)nc2cc(O)ccc12)c1ccccc1 | 741 | 
O=c1cc(NCCCCNCc2cccc(C(F)(F)F)c2)[nH]c2ccccc12 | 789 | 
c1ccc(Oc2ccc(Nc3ccnc4cc(-c5ccc(CN6CCCCC6)o5)ccc34)cc2)nc1 | 331 | 
c1ccc(N2CCN(c3cc(-c4cccnc4)nc(-c4ccncc4)n3)CC2)nc1 | 757 | 
COc1cc(C(C)C)ccc1N1CCN(CCCCNC(=O)c2ccc(NC(=O)c3ccc(Cl)cc3)cc2)CC1 | 576 | 
Cc1c(S(=O)(=O)Nc2ccc3nccc(N4CC(C)NC(C)C4)c3c2)sc2ccc(Cl)cc12 (stereo not drawn) | 1020 | 
O=C(Nc1ccc(Cl)cc1)N1CCN(C2CCCCC2)CC1 | 986 | 
COc1ccc(CCN(C)CCOc2ccc(NC(=O)c3ccc([N+](=O)[O-])c4c(=O)c5ccccc5[nH]c34)cc2)cc1OC | 927 | 
CC(C)Cc1cnc2nc(N)nc(N)c2c1 | 491 | 
CCCNCc1ccc(-c2ccc(CN(Cc3cnc(C)cn3)C(=O)/C=C/c3ccccc3C)cc2)nc1 | 919 | 
O=C(/C=C/c1ccc(Cl)c(Cl)c1)NCCCCN1CCCN(C(=O)Nc2ccc(F)c(Cl)c2)CC1 | 1510 | 
NC(=O)c1ccc(C(=O)Nc2cccc(-c3cccc(-c4nc5cc(C(F)(F)F)ccc5[nH]4)c3)c2)cc1 | 229 | 
O=C(Nc1cccc(CN2CCN(Cc3ccc(O)cc3)CC2)c1)c1ccc(Cl)c(Cl)c1 | 253 | 
COC(=O)C(Cc1ccccc1)NC(=O)NC1CCN(c2ccnc(Nc3ccc(F)cc3)n2)C1 (stereo not drawn) | 1090 | 
COc1ccc(CNC(=O)c2cnc3c(O)cccc3c2Nc2cccc(NC(=O)c3ccc(-c4ccccc4)cc3)c2)cc1 | 941 | 
N=C(NCCc1ccc(Cl)cc1)c1ccc(Cl)c(Cl)c1 | 1100 | 
OC(CNCc1ccccc1OCc1ccccc1)c1cc(C(F)(F)F)cc(C(F)(F)F)c1 (stereo not drawn) | 134 | 
Cc1cccc2nc(-c3ccc(-c4cccc(CNCc5cccc(N)c5)c4)s3)[nH]c12 | 517 | 

SMILES | XC50 (Plasmodium falciparum, 3D7) [nM] | XC50 [nM]
COC(=O)c1ccc2nc(-c3ccc(C(=O)NCc4ccc(Cl)c(Cl)c4)cc3)[nH]c2c1 | 852 | 
CCCC1N=C(N)N=C(N)N1c1cccc([N+](=O)[O-])c1 (stereo not drawn) | 760 | 
COc1ccc(NC(=O)CSc2nc(-c3ccccc3Cl)ns2)cc1 | 1040 | 
CC1CCN(C(=O)C(Cc2c[nH]c3ccccc23)NS(=O)(=O)c2ccc(Cl)cc2)CC1 (stereo not drawn) | 717 | 
O=S(=O)(Nc1cc2c(cc1O)CCN(C1CCC1)CC2)c1ccc(-c2ccc(F)cc2)cc1 | 417 | 
CC(=O)Nc1cc(C(=O)Nc2cccc(-c3csc(-c4nc5ccccc5[nH]4)c3)c2)ccc1C | 465 | 
CNC(=O)c1nc(-c2ccccc2)[nH]c1NC(C)=O | 152 | 
CN(C)c1ccc(CN2CCC(NC(=O)c3ccc(-c4ccccc4F)s3)CC2)cc1 | 1120 | 
CCCCc1cc(NCc2ccncc2)nc(Nc2cccc(OC)c2)n1 | 742 | 
C[C@H]1CN(Cc2cccc(-c3cc(CNC(=O)c4cccc(CN5CCN(CCOc6ccccc6)CC5)c4)ccc3F)c2)CCN1 | 1110 | 
CCCN(CCC)CC(O)COc1ccccc1C(=O)Nc1ccccc1 (stereo not drawn) | 799 | 
CCCCCCCCCc1c(C)[nH]c2ccccc2c1=O | 163 | 
COc1ccc2c(c1)CC(NCc1ccc(-c3ccc4nc[nH]c4c3)cc1)C2 (stereo not drawn) | 880 | 
COc1ccc(C=NNc2cc(C)nc3ccc(OC)cc23)c(OC)c1 | 778 | 
COc1ccc(-c2cnc(N)c(-c3ccc(O)c(OC)c3)c2)cn1 | 875 | 
COC(=O)c1cccc(CN(CCC(O)(C(F)(F)F)C(F)(F)F)C(=O)CC2CCCC2)c1 | 909 | 
CCCCCc1cc(O)c2c(c1)OC(C)(C)C=C2C1=CCN(Cc2ccsc2)CC1 | 964 | 
Cc1ccc(Cc2cnc(CN3CCCCC3)c(O)c2)cc1 | 890 | 
c1ccc([C@H]2CN3CCSC3=N2)cc1 [LEVAMISOLE] | 622 | 
Cc1nc(-c2nc(NCc3ccncc3)ncc2-c2ccsc2)sc1C | 989 | 
Cn1c(Nc2cc(C(C)(C)C)on2)nc2cc(Nc3ccnc(Nc4cccc(S(=O)(=O)N5CCOCC5)c4)n3)ccc21 | 533 | 
CCN(CCCN1CCCCC1)c1cc(C)nc(Nc2cc(Cl)cc(Cl)c2)n1 | 286 | 

SMILES | XC50 (Plasmodium falciparum, 3D7) [nM] | XC50 [nM]
COc1ccc(-c2cccc(NC(=O)c3cccc(C#N)c3)c2)cc1CN1CCNCC1 | 728 | 
COc1ccccc1CCNC(=O)c1cnc(N2CCN(c3ccncc3)CC2)c(Cl)c1 | 1150 | 
CCN1C(=O)N(CCC(C)C)C2(CCN(Cc3ccc(OC)cc3O)CC2)C1=O | 868 | 
CCCNCc1ccc(-c2ccc(CN(CCOC)C(=O)CCCOCc3ccccc3)cc2)nc1 | 1160 | 
Cc1cccc2nc(-c3cccc(-c4cccc(CNCc5cnn(-c6ccccc6)n5)c4)c3)[nH]c12 | 663 | 
CC(C)c1sc(N2CCN(C)CC2)nc1C(=O)NCCc1ccc(Br)cc1 | 1130 | 
Cc1cc(N2CCCCC2)nc2ccc(NC(=O)c3cncc(Br)c3)cc12 | 718 | 
COc1ccc(NC(=O)NC2CCN(c3ccnc4cc(Cl)ccc34)CC2)cc1 | 731 | 
c1cc(CNCc2ccc3c(c2)OCO3)cc(-c2cccc(CNc3ccc4ncccc4c3)c2)c1 | 760 | 
CCCCCCN1CCN(Cc2cccc(NC(=O)c3ccc(Cl)c(Cl)c3)c2)CC1 | 610 | 
COc1ccc2nccc(N3CCC(CCNCc4cc5c(cn4)OCCO5)CC3)c2c1 | 874 | 
c1cc(CN2CCN(CCN3CCOCC3)CC2)cc(-c2cccc(-c3nc4ccccc4[nH]3)c2)c1 | 236 | 
O=C(Nc1cccc(-c2cccc(-c3nc4ccccc4[nH]3)c2)c1)c1ccncc1 | 479 | 
COc1cc2nc(NCCc3ccccc3)nc(NCc3ccc(C#N)cc3)c2cc1OC | 145 | 
CCC(=O)N[C@@H]1CN[C@@H](C#Cc2cc3c(Nc4ccc(OCc5cccc(F)c5)c(Cl)c4)ncnc3s2)C1 | 1120 | 
O=c1c2ccccc2[nH]c2nc3ccccc3c(Nc3ccccc3)c12 | 141 | 
COc1ccc(CNC2CCN(C)CC2)cc1-c1ccc(S(=O)(=O)NC2CCC2)s1 | 733 | 
COc1ccc2ccc(OC)c(CNCCCCCCNCc3c(OC)ccc4ccc(OC)cc34)c2c1 | 699 | 
CCC1CN(S(=O)(=O)c2ccc3c(c2)NC(=O)CC(=O)N3)c2cc(Cl)ccc2O1 (stereo not drawn) | 656 | 
COc1ccc(Cc2cnc(N)nc2N)cc1OCCCOc1ccccc1 | 911 | 
O=C(Nc1ccc(-c2csc(-c3nc4ccccc4[nH]3)c2)cc1)Nc1ccc(F)c(F)c1F | 330 | 
OC(c1ccccc1)C1CN(CCc2ccccc2)CCC1(O)c1ccccc1 (stereo not drawn) | 1040 | 

SMILES | XC50 (Plasmodium falciparum, 3D7) [nM] | XC50 [nM]
FC(F)(F)c1ccc2[nH]c(-c3cccc(-c4ccc(CNCc5cnn(-c6ccccc6)n5)cc4)c3)nc2c1 | 1330 | 
C/C=C1\CN2CC[C@H]1C[C@H]2[C@H](O)c1ccnc2ccc(OC)cc12 |  | 219
Cc1cccn2c(=O)c3cc(C(=O)NCCN4CCOCC4)c(=N)n(CCc4ccccc4)c3nc12 | 468 | 
CCCCCCCN1CC[C@@H](CCCc2ccnc3ccc(OC)cc23)[C@@H](CCN)C1 | 748 | 
COc1ccc(-c2ccc(NC(=O)c3cccc(C#N)c3)cc2)cc1CN1CCNCC1 | 728 | 
CCNS(=O)(=O)c1ccc(Oc2ccc([N+](=O)[O-])cc2)cc1 | 169 | 
CSc1ccc2ccccc2c1CNCCCCCCNCc1c(SC)ccc2ccccc12 | 797 | 
COc1cc(Nc2nccc(Nc3ccc4c(C)n[nH]c4c3)n2)cc2ccccc12 | 699 | 
C[C@H](NC(=O)c1c(CN2CCN(C(=O)C(C)(C)C)CC2)c(-c2cccs2)nc2ccccc12)C1CCCCC1 | 1180 | 
c1ccc(CN2CCC(NCc3ccc(-c4ccc(CNC5CCCC5)cc4)cc3)CC2)cc1 | 294 | 
Cc1ccc(O)cc1Nc1ccnc2cc(-c3ccncc3)ccc12 | 723 | 
Cc1cc(O)c(-c2ccc(S(=O)(=O)c3ccc(Cl)cc3)cc2)c(C)n1 | 877 | 
COc1ccc(CCN2CCC(NCc3cccc(N(C)C)c3)CC2)cc1 | 1320 | 
COc1cc(Cn2ccc3c4c(N)nc(N)nc4ccc32)cc(OC)c1OC | 9.34 | 
CCOC(=O)Nc1cc(-c2csc(N=C(N)N)n2)cc([N+](=O)[O-])c1 | 816 | 
CCOC(=O)c1c(C)n(-c2ccccc2)c2ccc(OC(=O)COc3ccc(Cl)cc3Cl)cc12 | 429 | 
Nc1ccc(-c2nc3cc(Oc4ccc5[nH]c(-c6ccc(N)cc6)nc5c4)ccc3[nH]2)cc1 | 719 | 
COc1ccc(CC(=O)Nc2ccc(-c3cccc(-c4nc5cccc(C)c5[nH]4)c3)cc2)cc1O | 452 | 
O=C(N[C@@H](Cc1ccccc1)[C@H](O)CNC1CCCCC1)c1cc(C2CCCC2)cc(N2CCCC2=O)c1 | 169 | 
O=C(Nc1cccc(-c2cccc(-c3nc4cc(C(F)(F)F)ccc4[nH]3)c2)c1)Nc1ccc(F)c(F)c1F | 119 | 
N#Cc1ccc(N[C@@H](CC2CCCCC2)C(=O)N[C@@H]2CCCc3ccccc32)c2ccccc12 | 728 | 
Cc1ccc(NC(=O)c2cccc(C#N)c2)cc1-c1ccc(C(=O)Nc2ccncc2)cc1 | 688 | 
